The text below walks through data of patent publication US12569494B2, “Compositions and methods to promote thymic regeneration” (Fred Hutchinson Cancer Center, priority 2018, dated 2026).

The subject of one assay is ECs. Briefly: BMP4 expression in ECs after ATP. In kind it is cell-based. The note with it: NF-kB independent manner.
The next assay concerns Ex-vivo ECs (exECs). Briefly: Bmp4 expression by qPCR in ex-vivo thymic endothelial cells (exECs). In kind it is cell-based, mice. The note with it: 50 μM Rho GTPase inhibitor, 20 h overnight, qPCR (FIG. 7A). The protocol: (§1) FIGS. 7A, 7B. Rho GTPase inhibition, using several small molecule inhibitors, promotes the expression of Bmp4 and the II12p40 subunit of IL-23. Ex-vivo ECs (exECs) were generated from FACS purified ECs from the thymus and transduced with lentivirus containing the adenoviral gene E4orf1, as described here Proc Natl Acad Sci USA. 2008 Dec. 9; 105(49):19288-93. The exECs were cultured in Advanced DMEM-F12 (Gibco Life Technologies 12634-028) with 20% FBS, 10 mM HEPES buffer, 1% Glutamax (Life Technologies 35050061), 1% Pen Strep, 1% Non-Essential Amino Acids (Life Technologies 11140050), 50 μg/ml Endothelial cell supplement (Alfa Aesar J64516, BT-023), 5 μM SB431542 (R&D Systems 1614), 20 ng/ml FGF (Peprotech 100-18B), 10 ng/ml VEGF (Peprotech 450-32) at 37° C., 5% O2 and 5% CO2. […] Bmp4 and II-12p40 expression were determined by qPCR (exECs, n=3-6 wells from 2 separate experiments; DCs, n=3 mice).
(§2) FIGS. 10A, 10B: In vitro treatment with a synthetic miR29c mimic reduces the expression of Bmp4 & IL-23, in ECs and DCs, respectively. exECs and DCs were generated and maintained as described in FIGS. 7A, 7B. […] Bmp4 and IL-23 expression were determined by qPCR (n=3).

The test system of assay [1] is Thymic dendritic cells (DCs). In words: Il-12p40 / IL-23 expression by qPCR in thymic dendritic cells (DCs). The note with it: 50 μM Rho GTPase inhibitor, 20 h overnight, qPCR (FIG. 7B). It counts as cell-based, C57BL/6 mice. The procedure: as §1, §2
The next assay relates to exECs. In words: miR29 family expression by qPCR in exECs after Rac1,2,3 inhibition. It counts as cell-based, mice. The note with it: 50 μM inhibitor, qPCR (FIG. 11). The protocol:
FIGS. 7A, 7B. Rho GTPase inhibition, using several small molecule inhibitors, promotes the expression of Bmp4 and the II12p40 subunit of IL-23. Ex-vivo ECs (exECs) were generated from FACS purified ECs from the thymus and transduced with lentivirus containing the adenoviral gene E4orf1, as described here Proc Natl Acad Sci USA. 2008 Dec. 9; 105(49):19288-93. The exECs were cultured in Advanced DMEM-F12 (Gibco Life Technologies 12634-028) with 20% FBS, 10 mM HEPES buffer, 1% Glutamax (Life Technologies 35050061), 1% Pen Strep, 1% Non-Essential Amino Acids (Life Technologies 11140050), 50 μg/ml Endothelial cell supplement (Alfa Aesar J64516, BT-023), 5 μM SB431542 (R&D Systems 1614), 20 ng/ml FGF (Peprotech 100-18B), 10 ng/ml VEGF (Peprotech 450-32) at 37° C., 5% O2 and 5% CO2. Thymic dendritic cells (DCs) were obtained from the thymus of 6 week old C57BL/6 mice, where post enzymatic digestion CD11c+ cells were isolated using magnetic beads (Miltenyi Biotech 130-108-338), and cultured in DMEM plus 10% FBS and 1% PenStrep at 37° C., 21% O2 and 5% CO2. The exECs and DCs were separately treated with 50 μM of the individual Rho GTPase inhibitors: RhoA (Millipore/Sigma, Rhosin, CAS 1173671-63-0, 555460-25MG), ROCK (TC-S 700, Tocris, 4961), Rac1,2,3 (Tocris, EHT 1864, 2161), and Cdc42 (Millipore/Sigma, CDC42 Inhibitor III, ZCL278, 500503) for 20 h overnight before being lysed and prepared for RNA extraction. Bmp4 and II-12p40 expression were determined by qPCR (exECs, n=3-6 wells from 2 separate experiments; DCs, n=3 mice).
FIG. 11. miR29c expression is reduced after Rac1 inhibition in ECs. exECs were treated with 50 μM Rac1,2,3 (Tocris, EHT 1864, 2161) inhibitor as described in FIGS. 7A, 7B. cDNA was prepared from isolated RNA using the Taqman Advanced miRNA cDNA Synthesis kit (Thermo Fisher A28007), and relative miR29c expression was assessed by qPCR (primers from Thermo Fisher A25576).

With `Nc1ncnc2c1ncn2[C@@H]1O[C@H](COP(=O)(O)OP(=O)(O)OP(=O)(O)O)[C@@H](O)[C@H]1O` [ATP], the BMP4 expression entry in the assay with ECs is given as “induces”.

`Cl.Cl.O=c1cc(CN2CCOCC2)occ1OCCCCCSc1ccnc2cc(C(F)(F)F)ccc12` (racemic) [EHT 1864, 5-(5-(7-(Trifluoromethyl)quinolin-4-ylthio)pentyloxy)-2-(morpholinomethyl)-4H-pyran-4-one dihydrochloride]: the Bmp4 expression result in the assay with Ex-vivo ECs (exECs) is listed as “significantly upregulated”. Further, the iI-12p40 expression entry in assay [1] is on record as “significantly upregulated”. Further, in the assay on exECs (compared with untreated), the miR29c expression entry is “significantly reduced”. For the same compound, in the assay on exECs, the miR29a levels entry was “not reduced” and the miR29b levels result is on record as “not reduced”.

On to `Cl.N[C@H](Cc1c[nH]c2ccccc12)C(=O)N/N=C/c1ccc2nccnc2c1` [Rhosin, D-Tryptophan (2E)-2-(6-quinoxalinylmethylene)hydrazide hydrochloride], for which the Bmp4 expression result in the assay with Ex-vivo ECs (exECs) is reported as “significantly upregulated”. The iI-12p40 expression entry in assay [1] is “significantly upregulated”.
